Values quoted from earlier work, collected in US11549142B2, “CETP inhibitors for therapeutic use” (Hoffmann-La Roche Inc., priority 2013, dated 2023).

Test system: patients
Conditions: torcetrapib and atorvastatin concomitantly compared to atorvastatin alone; cited from earlier work

CCOC(=O)N1c2ccc(C(F)(F)F)cc2[C@@H](N(Cc2cc(C(F)(F)F)cc(C(F)(F)F)c2)C(=O)OC)C[C@H]1CC [torcetrapib, (2R,4S)-4-[(3,5-bistrifluoromethylbenzyl)methoxycarbonylamino]-2-ethyl-6-trifluoromethyl-3,4-dihydro-2H-quinoline-1-carboxylic acid ethyl ester]
reason for termination of the Phase III clinical trial: incidence of mortality
